Data: patent US4820821A, “Novel pyridazinone-imines and their physiologically tolerated addition salts with acids, their preparation and therapeutic agents containing these compounds” (BASF Aktiengesellschaft, priority 1981, dated 1989)
Read-outs that look alike come from different tables or passages of the source.

Assays:
[1] = test system: reserpine-induced hypothermia / blood pressure; assay: Quotient ED 50% antidepressive action / ED 20% hypertensive action; format: in vivo, mouse / rat; conditions: for Q Increase: Table 2, route of hypertensive test not given;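 for Q Increase: larger quotient means more selective hypertensive action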
Description: This is evident from the fact that the quotient defined above differs wtih respect to the comparative compounds. […] This arises, inter alia, from the fact that the hypertensive ED 20 constitutes the denominator of the quotient. It is possible that the unforeseeable selective direction of action is attributable to the special substitution,in accordance with the invention, at the 4-imino group.

[2] = test system: reserpine-induced hypothermia; assay: Antidepressive action: reserpine antagonism, inhibition of reserpine-induced hypothermia of the mouse; format: in vivo, male Swiss mice; conditions: for ED50: Mus musculus, dose based on the base, read-out: ED 50% (dose which inhibits the reserpine-induced hypothermia of the mouse by 50%); for R.A. (relative activity), reserpine antagonism: amezinium = 1.00, oral
Method: Antidepressants effect dose-dependent inhibition of this hypotherma. The test substances are administered orally 60 minutes before the administration of reserpine.
The dose which effects 50% inhibition of the reserpine-induced hypothermia is determined, as the ED 50%, from the linear regression between log dose (mg/kg) and relative reduction in hypothermia (Δ%).

blood pressure = assay: Effect on the blood pressure: hypertensive action, pithed rat; format: in vivo, male Sprague-Dawley rats; conditions: for ED20: Rattus norvegicus, dose based on the base, read-out: ED 20% hypertensive action (dose which increases the blood pressure of the pithed rat by 20%); for R.A. (relative activity), hypertensive action: amezinium = 1.00
Method: The measurement of the blood pressure in the carotid artery was carried out by means of Statham transducers. The substance was administered in the jugular vein (as an aqueous solution, 1 ml/kg) or intraperitoneally (as a tragacanth suspension, 2 ml/kg). The ED 20% is determined as the dose which increases the blood pressure by 20%.

[3] = Table 1, oral administration 60 min before reserpine
[4] = iv, Table 1, i.v. administration
[5] = ip, Table 1, i.p. administration

Compound	Q (quotient ED 50% antidepressive action/ED 20% hypertensive action) ([1]; hypertensive test i.v.)	ED50 [2, 3] [mg/kg]	R.A. (relative activity), reserpine antagonism ([2]; Table 1)	ED20 (blood pressure; [4]) [mg/kg]	R.A. (relative activity), hypertensive action (blood pressure; Table 1, i.v. administration)	Q (quotient ED 50% antidepressive action/ED 20% hypertensive action) ([1]; hypertensive test i.p.)	ED20 (blood pressure; [5]) [mg/kg]	R.A. (relative activity), hypertensive action (blood pressure; Table 1, i.p. administration)	Q Increase [1]	ED50 ([2]; Table 2, oral administration) [mg/kg]	R.A. (relative activity), reserpine antagonism ([2]; Table 2)	ED20 (blood pressure; Table 2, route not given) [mg/kg]	R.A. (relative activity), hypertensive action (blood pressure; Table 2)	factor by which the quotient of antidepressive action and hypertensive action is smaller than in the case of amezinium ([1]; compounds of Table 1)
C=CCOC(=O)N=c1ccn(-c2ccccc2)nc1 [Example 35]	2.50	0.25	2.93	0.1	0.50									
CCSC(=O)N=c1ccn(-c2ccccc2)nc1 [Example 36]	6.33	2	0.37	0.316	0.16									
CC(C)NC(=O)N=c1ccn(-c2ccccc2)nc1 [Example 37]	0.70	0.7	1.05	1	0.05									
COc1cc(=NC(C)=O)cnn1-c1ccccc1 [Example 48, 4-acetylimino-1,4-dihydro-6-methoxy-1-phenylpyridazine perchlorate]		1.1	0.67			0.16	6.81	0.05						
CCOc1cc(=NC(C)=O)cnn1-c1ccccc1 [Example 49]		1.71	0.43			0.37	4.64	0.08						
CCC(=O)N=c1cnn(-c2ccccc2)c(OC)c1 [Example 50]		0.18	4.07			0.06	3.16	0.12						
CCCC(=O)N=c1cnn(-c2ccccc2)c(OC)c1 [Example 52]		1.4	0.52			0.44	3.16	0.12						
COc1cc(=NC(=O)Oc2ccccc2)cnn1-c1ccccc1 [Example 58, 1,4-dihydro-6-methoxy-4-(phenoxycarbonyl)-imino-1-phenylpyridazine]									56.20	5.62	0.13	0.1	0.50	
COc1cc(=NC(=O)c2ccccc2)cnn1-c1ccccc1 [Example 60]		0.93	0.79			0.43	2.15	0.17						
COc1cc(OC)cc(C(=O)N=c2cnn(-c3ccccc3)c(OC)c2)c1 [Example 62]	1.18	0.66	1.11	0.56	0.09									
COc1cc(=NC(=O)c2ccccc2Cl)cnn1-c1ccccc1 [Example 64]		1.27	0.58			< 0.13	> 10	< 0.04						
CCOc1cc(=NC(=O)c2ccccc2Cl)cnn1-c1ccccc1 [Example 65]									> 59.62	> 31.6	< 0.02	0.53	0.09	
COc1cc(=NC(=O)c2ccc(Cl)cc2)cnn1-c1ccccc1 [Example 66]		1.8	0.41			< 0.18	> 10	< 0.04						
COc1cc(=NC(=O)c2ccc(Cl)cc2Cl)cnn1-c1ccccc1 [Example 68]		0.95	0.77			< 0.04	> 21.5	< 0.02						
CCOC(=O)N=c1cnn(-c2ccccc2)c(OC)c1 [Example 69]	2.26	4.86	0.15	2.15	0.02									
CCCCOC(=O)N=c1cnn(-c2ccccc2)c(OC)c1 [Example 71]	1.64	0.76	0.96	0.464	0.11									
C=CCOC(=O)N=c1cnn(-c2ccccc2)c(OC)c1 [Example 72]	3.17	1.47	0.50	0.464	0.11									
CCSC(=O)N=c1cnn(-c2ccccc2)c(OC)c1 [Example 73]		1.23	0.60			< 0.12	> 10	< 0.04						
COc1cc(=NC(=O)NCc2ccccc2)cnn1-c1ccccc1 [Example 74]	1.82	8.45	0.09	4.64	0.01									
COc1cc(=NC(=O)c2cccc(C(F)(F)F)c2)cnn1-c1ccccc1 [Example 77]		3.4	0.22			1.08	3.16	0.12						
COc1cc(=NC(=O)c2ccc(C)cc2)cnn1-c1ccccc1 [Example 78]		0.73	1.00			0.07	10	0.04						
COc1cc(=NC(=O)c2ccc(F)cc2)cnn1-c1ccccc1 [Example 79]		1.14	0.64			0.11	10	0.04						
COc1cc(=NC(=O)c2ccc(Cl)c(Cl)c2)cnn1-c1ccccc1 [Example 80]		1.5	0.49			< 0.15	> 10	< 0.04						
CCNC(=O)N=c1ccn(-c2ccccc2)nc1 [Example 84, 1,4-dihydro-4-(ethylcarbamyl)-imino-1-phenylpyridazine]	0.80	0.37	1.98	0.464	0.11									
CCCNC(=O)N=c1ccn(-c2ccccc2)nc1 [Example 85, 1,4-dihydro-1-phenyl-4-[(propylcarbamyl)-imino]-pyridazine]	0.28	0.28	2.62	1	0.05									52
